The values that follow come from ChEMBL document CHEMBL4665629, “An optimised series of substituted N-phenylpyrrolamides as DNA gyrase B inhibitors” (Eur J Med Chem, 2019).

Test [1] concerns Enterococcus faecium. Nature of the test: Antibacterial activity against Enterococcus faecium ATCC 35667 assessed as minimum inhibitory concentration required for >=90% inhibition of bacterial growth by CLSI protocol based broth microdilution assay. Format: functional.
The subject of a further test is Acinetobacter baumannii. Nature of the test: Antibacterial activity against Acinetobacter baumannii ATCC 19606 assessed as bacterial growth inhibition at 50 uM incubated for 24 hrs by CLSI protocol based broth microdilution assay relative to control. The note with it: ATCC 19606 = CIP 70.34 = JCM 6841. The test is classed as functional. For orientation: Dilution methods test growth across graded concentrations, often in twofold steps.

The target of test [2] is DNA gyrase (Staphylococcus aureus) (UniProt P0A0K8+P20831). The experiment in a line: Inhibition of Staphylococcus aureus DNA gyrase assessed as residual activity at 1 uM using biotinylated oligonucleotide as substrate incubated for 30 mins in presence of ATP by fluorescence-based microplate reader assay relative to control. Format: protein-complex assay.
Sequence of DNA gyrase (Staphylococcus aureus) (P0A0K8 2-644 limits assumed): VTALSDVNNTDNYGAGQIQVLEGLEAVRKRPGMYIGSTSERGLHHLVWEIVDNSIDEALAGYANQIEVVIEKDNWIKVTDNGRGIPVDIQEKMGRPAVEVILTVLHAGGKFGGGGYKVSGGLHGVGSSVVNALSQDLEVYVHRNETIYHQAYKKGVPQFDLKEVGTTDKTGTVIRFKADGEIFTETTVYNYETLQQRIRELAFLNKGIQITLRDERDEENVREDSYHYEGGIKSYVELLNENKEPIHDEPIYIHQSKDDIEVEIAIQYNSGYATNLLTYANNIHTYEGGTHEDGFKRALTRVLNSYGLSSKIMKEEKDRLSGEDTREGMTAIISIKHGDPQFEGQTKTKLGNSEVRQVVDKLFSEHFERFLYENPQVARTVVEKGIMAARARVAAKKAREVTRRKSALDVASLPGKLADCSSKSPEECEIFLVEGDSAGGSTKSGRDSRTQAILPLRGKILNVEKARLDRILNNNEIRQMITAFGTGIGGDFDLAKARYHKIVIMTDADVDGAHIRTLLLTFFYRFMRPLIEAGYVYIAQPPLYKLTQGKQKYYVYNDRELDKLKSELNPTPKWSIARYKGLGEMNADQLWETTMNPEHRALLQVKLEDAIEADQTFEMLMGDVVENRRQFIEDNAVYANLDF
Sequence of DNA gyrase (Staphylococcus aureus) (P20831 whole entry partner): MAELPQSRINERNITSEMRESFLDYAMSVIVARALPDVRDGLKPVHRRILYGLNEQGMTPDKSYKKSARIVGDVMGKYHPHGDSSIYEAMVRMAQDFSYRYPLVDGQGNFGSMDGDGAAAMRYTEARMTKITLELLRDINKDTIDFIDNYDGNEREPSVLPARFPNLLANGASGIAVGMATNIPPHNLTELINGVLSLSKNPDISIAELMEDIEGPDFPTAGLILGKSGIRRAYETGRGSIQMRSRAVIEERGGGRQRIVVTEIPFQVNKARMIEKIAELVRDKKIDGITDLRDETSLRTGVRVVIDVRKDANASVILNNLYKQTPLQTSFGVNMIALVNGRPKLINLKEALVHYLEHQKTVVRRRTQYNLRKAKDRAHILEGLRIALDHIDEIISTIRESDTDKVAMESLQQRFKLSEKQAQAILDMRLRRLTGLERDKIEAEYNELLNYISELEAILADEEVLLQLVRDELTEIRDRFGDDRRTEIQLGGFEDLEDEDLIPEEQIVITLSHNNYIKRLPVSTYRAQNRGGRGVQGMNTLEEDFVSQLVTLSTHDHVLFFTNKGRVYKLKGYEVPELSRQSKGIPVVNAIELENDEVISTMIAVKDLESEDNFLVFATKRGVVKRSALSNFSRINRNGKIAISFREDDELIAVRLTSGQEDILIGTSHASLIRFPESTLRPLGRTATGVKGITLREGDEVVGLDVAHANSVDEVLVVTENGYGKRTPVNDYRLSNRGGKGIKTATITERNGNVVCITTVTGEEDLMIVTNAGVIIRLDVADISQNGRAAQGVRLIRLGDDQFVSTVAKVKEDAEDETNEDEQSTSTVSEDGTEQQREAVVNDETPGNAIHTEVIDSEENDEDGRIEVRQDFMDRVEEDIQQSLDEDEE
Another test relates to Klebsiella pneumoniae. The experiment in a line: Antibacterial activity against Klebsiella pneumoniae ATCC 700603 assessed as bacterial growth inhibition at 50 uM incubated for 24 hrs by CLSI protocol based broth microdilution assay relative to control. The test is classed as functional.
The next test relates to Klebsiella aerogenes. The experiment in a line: Antibacterial activity against Enterobacter aerogenes ATCC 13408 assessed as bacterial growth inhibition at 50 uM incubated for 24 hrs by CLSI protocol based broth microdilution assay relative to control. The test is classed as functional.
Another test deals with Staphylococcus aureus. Nature of the test: Antibacterial activity against Staphylococcus aureus ATCC 29213 assessed as bacterial growth inhibition at 50 uM incubated for 24 hrs by CLSI protocol based broth microdilution assay relative to control. Format: functional.
In test [3] the test system is Escherichia coli. The experiment in a line: Antibacterial activity against efflux pump d effect ive Escherichia coli JW5503 harbouring tolC mutant assessed as bacterial growth inhibition at 50 uM incubated for 24 hrs by CLSI protocol based broth microdilution assay relative to control. Format: functional.
Test [4] concerns Enterococcus faecium. The experiment in a line: Antibacterial activity against Enterococcus faecium ATCC 35667 assessed as bacterial growth inhibition at 50 uM incubated for 24 hrs by CLSI protocol based broth microdilution assay relative to control. The test is classed as functional.
The test system of test [5] is Escherichia coli. Nature of the test: Antibacterial activity against efflux pump d effect ive Escherichia coli JW5503 harbouring tolC mutant assessed as minimum inhibitory concentration required for >=90% inhibition of bacterial growth by CLSI protocol based broth microdilution assay. Format: functional.
The next test has as its system Pseudomonas aeruginosa. The experiment in a line: Antibacterial activity against Pseudomonas aeruginosa ATCC 27853 assessed as bacterial growth inhibition at 50 uM incubated for 24 hrs by CLSI protocol based broth microdilution assay relative to control. The test is classed as functional.
The target in test [6] is Topoisomerase IV (Staphylococcus aureus) (UniProt P0C1U9+P0C1S7). The experiment in a line: Inhibition of Staphylococcus aureus DNA topoisomerase 4 assessed as residual activity at 1 uM using biotinylated oligonucleotide as substrate incubated for 30 mins in presence of ATP by fluorescence-based microplate reader assay relative to control. Format: protein-complex assay.

Test [7] relates to Escherichia coli. Nature of the test: Antibacterial activity against Escherichia coli ATCC 25922 assessed as bacterial growth inhibition at 50 uM incubated for 24 hrs by CLSI protocol based broth microdilution assay relative to control. Format: functional.
Test [8] is described as follows: Inhibition of Escherichia coli DNA topoisomerase 4 assessed as residual activity at 1 uM using biotinylated oligonucleotide as substrate incubated for 30 mins in presence of ATP by fluorescence-based microplate reader assay relative to control.
Test [9] has as its system Escherichia coli. The experiment in a line: Antibacterial activity against outer membrane impaired Escherichia coli JD17464 harboring lpxC mutant assessed as bacterial growth inhibition at 50 uM incubated for 24 hrs by CLSI protocol based broth microdilution assay relative to control. The test is classed as functional.
The target in test [10] is DNA gyrase (Escherichia coli, UniProt P0AES4+P0AES6). Nature of the test: Inhibition of Escherichia coli DNA gyrase using biotinylated oligonucleotide as substrate incubated for 30 mins in presence of ATP by fluorescence-based microplate reader assay. The test is classed as protein-complex assay.
The target in test [11] is DNA gyrase (Staphylococcus aureus, UniProt P0A0K8+P20831). Nature of the test: Inhibition of Staphylococcus aureus DNA gyrase using biotinylated oligonucleotide as substrate incubated for 30 mins in presence of ATP by fluorescence-based microplate reader assay. The test is classed as protein-complex assay.
Sequence of DNA gyrase (Staphylococcus aureus, UniProt P0A0K8+P20831) (P0A0K8 whole entry): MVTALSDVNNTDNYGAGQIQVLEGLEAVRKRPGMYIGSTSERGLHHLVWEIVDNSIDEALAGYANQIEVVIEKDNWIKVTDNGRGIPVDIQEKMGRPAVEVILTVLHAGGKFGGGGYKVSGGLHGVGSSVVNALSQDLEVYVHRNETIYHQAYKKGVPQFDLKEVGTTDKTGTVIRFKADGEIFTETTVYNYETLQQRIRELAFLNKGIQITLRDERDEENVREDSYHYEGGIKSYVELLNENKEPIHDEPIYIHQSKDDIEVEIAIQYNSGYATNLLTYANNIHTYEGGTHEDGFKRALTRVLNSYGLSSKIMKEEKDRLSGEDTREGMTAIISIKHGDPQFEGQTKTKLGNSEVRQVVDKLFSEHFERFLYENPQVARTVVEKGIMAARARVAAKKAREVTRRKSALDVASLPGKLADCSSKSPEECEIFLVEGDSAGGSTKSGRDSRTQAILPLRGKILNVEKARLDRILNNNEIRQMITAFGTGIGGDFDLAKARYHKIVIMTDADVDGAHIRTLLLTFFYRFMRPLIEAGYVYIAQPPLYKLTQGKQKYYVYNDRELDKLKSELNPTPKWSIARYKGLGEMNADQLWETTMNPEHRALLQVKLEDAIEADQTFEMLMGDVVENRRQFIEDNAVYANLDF
Sequence of DNA gyrase (Staphylococcus aureus, UniProt P0A0K8+P20831) (P20831 whole entry): as the sequence (P20831 whole entry partner) above
A further test concerns the target Topoisomerase IV (Staphylococcus aureus, UniProt P0C1S7+P0C1U9). Nature of the test: Inhibition of Staphylococcus aureus DNA topoisomerase 4 using biotinylated oligonucleotide as substrate incubated for 30 mins in presence of ATP by fluorescence-based microplate reader assay. The test is classed as protein-complex assay.
Test [12] in a line: Inhibition of Escherichia coli DNA topoisomerase 4 using biotinylated oligonucleotide as substrate incubated for 30 mins in presence of ATP by fluorescence-based microplate reader assay.
A further test deals with Enterococcus faecalis. Nature of the test: Antibacterial activity against Enterococcus faecalis ATCC 29212 assessed as bacterial growth inhibition at 50 uM incubated for 24 hrs by CLSI protocol based broth microdilution assay relative to control. Format: functional.

The structures appear in SMILES notation. ≈ marks a conversion by molar mass, not a printed value.

Sequence of Topoisomerase IV (P0C1U9 whole entry): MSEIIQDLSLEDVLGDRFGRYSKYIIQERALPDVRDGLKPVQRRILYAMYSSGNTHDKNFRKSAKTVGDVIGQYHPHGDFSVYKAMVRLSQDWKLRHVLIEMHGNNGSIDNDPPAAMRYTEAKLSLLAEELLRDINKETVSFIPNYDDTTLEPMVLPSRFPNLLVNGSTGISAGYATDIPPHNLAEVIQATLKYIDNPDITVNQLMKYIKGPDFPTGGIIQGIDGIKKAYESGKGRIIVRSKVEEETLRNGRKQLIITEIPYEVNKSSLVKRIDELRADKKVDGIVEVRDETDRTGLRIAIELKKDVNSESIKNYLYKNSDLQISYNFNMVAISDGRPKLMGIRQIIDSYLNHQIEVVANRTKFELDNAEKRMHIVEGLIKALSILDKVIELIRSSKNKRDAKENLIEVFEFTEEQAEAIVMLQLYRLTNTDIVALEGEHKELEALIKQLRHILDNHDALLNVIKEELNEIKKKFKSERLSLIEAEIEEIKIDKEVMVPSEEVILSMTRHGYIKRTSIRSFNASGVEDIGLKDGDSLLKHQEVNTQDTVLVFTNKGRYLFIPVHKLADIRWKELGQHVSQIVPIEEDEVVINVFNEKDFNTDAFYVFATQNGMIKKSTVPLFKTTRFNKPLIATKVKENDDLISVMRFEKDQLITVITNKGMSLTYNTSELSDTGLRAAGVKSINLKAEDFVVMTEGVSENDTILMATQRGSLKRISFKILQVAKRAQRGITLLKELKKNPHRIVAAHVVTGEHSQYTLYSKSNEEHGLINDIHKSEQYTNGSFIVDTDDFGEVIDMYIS
Sequence of Topoisomerase IV (P0C1S7 whole entry): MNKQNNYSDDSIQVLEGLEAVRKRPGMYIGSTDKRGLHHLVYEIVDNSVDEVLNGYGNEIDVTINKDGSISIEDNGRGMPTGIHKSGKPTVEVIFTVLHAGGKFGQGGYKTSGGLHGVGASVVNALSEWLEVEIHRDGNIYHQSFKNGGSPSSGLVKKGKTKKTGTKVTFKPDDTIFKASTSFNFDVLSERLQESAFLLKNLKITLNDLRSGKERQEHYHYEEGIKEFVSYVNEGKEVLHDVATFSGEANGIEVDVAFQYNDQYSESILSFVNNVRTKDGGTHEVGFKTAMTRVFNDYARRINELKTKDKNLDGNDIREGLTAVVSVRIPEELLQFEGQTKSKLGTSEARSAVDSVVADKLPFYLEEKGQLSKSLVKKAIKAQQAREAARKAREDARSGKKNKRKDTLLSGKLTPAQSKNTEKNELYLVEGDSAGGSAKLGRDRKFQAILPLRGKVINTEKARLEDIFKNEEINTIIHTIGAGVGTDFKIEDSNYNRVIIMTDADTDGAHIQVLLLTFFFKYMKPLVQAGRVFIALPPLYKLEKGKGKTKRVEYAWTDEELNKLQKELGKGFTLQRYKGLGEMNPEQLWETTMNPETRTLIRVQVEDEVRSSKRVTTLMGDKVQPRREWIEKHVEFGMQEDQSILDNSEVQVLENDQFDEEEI

For `CC(=O)NC[C@H]1CN(c2ccc(N3CCOCC3)c(F)c2)C(=O)O1` [LINEZOLID], the MIC (usually the lowest concentration that inhibits growth of the organism) in the test on Enterococcus faecium [1] was 11.9 µM (≈ 4 µg/mL).

For `COC(=O)[C@@H](C)NC(=O)c1ccc(NC(=O)c2[nH]c(C)c(Cl)c2Cl)c(OC2CCNCC2)c1`, the inhibition (commonly the drop in the measured response relative to a control, in per cent) at 50 µM in the test on Acinetobacter baumannii was 17%; in the test on Klebsiella pneumoniae it was -7%; in the test on Klebsiella aerogenes, -2%; in the test on Staphylococcus aureus, 8%; in the test with Escherichia coli [3] it was 97%; in the test on Enterococcus faecium [4], 4%. Further, the inhibition at 50 µM in the test with Pseudomonas aeruginosa was 12%; with Escherichia coli [7] it was 8%; in the test on Escherichia coli [9] it was 21%. The Activity in test [2] came to 49%; in test [6], 94%; in test [8], 89%. Further, the MIC in the test with Escherichia coli [5] turned out to be 6.25 µM (≈ 3.11 µg/mL). Further, the IC50 (in general, the concentration at which inhibition is half-maximal) at DNA gyrase [10] was 48 nM.

As to `Cc1[nH]c(C(=O)Nc2ccc(C(=O)N[C@H](C)C(=O)O)cc2OC2CCN(C(=O)OC(C)(C)C)CC2)c(Cl)c1Cl`, the inhibition at 50 µM with Acinetobacter baumannii is 15%; in the test with Klebsiella pneumoniae, -13%; with Klebsiella aerogenes, -5%; in the test on Staphylococcus aureus, -22%; in the test on Escherichia coli [3], -8%; with Enterococcus faecium [4], 59%. For the same compound, the inhibition at 50 µM with Pseudomonas aeruginosa is -10%; in the test on Escherichia coli [7], -7%; in the test with Escherichia coli [9], 10%. For the same compound, the Activity in test [2] came to 68%; in [6], 79%; in test [8], 99%. In addition, the IC50 on DNA gyrase [10] came out at 71 nM.

For the compound `COC(=O)CNC(=O)c1ccc(NC(=O)c2[nH]c(C)c(Cl)c2Cl)c(O[C@H]2CCNC2)c1`, the inhibition at 50 µM in the test on Acinetobacter baumannii is 2%; in the test with Klebsiella pneumoniae, -5%; in the test with Klebsiella aerogenes, -3%; with Staphylococcus aureus it was 5%; in the test on Escherichia coli [3] it was 88%; with Enterococcus faecium [4], 13%. Further, the inhibition at 50 µM in the test with Pseudomonas aeruginosa amounted to 4%; with Escherichia coli [7], 4%; with Escherichia coli [9], 26%. The MIC in the test on Escherichia coli [5] is 25 µM (≈ 11.7 µg/mL). In addition, the results for the Activity in [6] and in test [8] were 94% and 90%, respectively. Further, the IC50 on DNA gyrase [11] stood at 950 nM; on DNA gyrase [10] it was 74 nM.

In the case of `O=C(O)CNC(=O)c1ccc(NC(=O)c2cc(Br)c(Br)[nH]2)c(OC2CCNCC2)c1`, the inhibition at 50 µM in the test with Acinetobacter baumannii is 1%; in the test with Klebsiella pneumoniae, 4%; with Klebsiella aerogenes, 3%; with Staphylococcus aureus, 3%; in the test with Escherichia coli [3] it was -17%; with Enterococcus faecium [4], 2%. Further, the inhibition at 50 µM was 2% in the test with Pseudomonas aeruginosa, -9% in the test on Escherichia coli [7] and 5% in the test with Escherichia coli [9]. The Activity amounted to 67% in test [2], 100% in [6] and 100% in test [8]. The IC50 at DNA gyrase [10] stood at 20 nM.

For `Cc1[nH]c(C(=O)Nc2ccc(C(=O)NCC(=O)O)cc2OC2CCN(C(=O)OC(C)(C)C)CC2)c(Cl)c1Cl`, the inhibition at 50 µM in the test with Acinetobacter baumannii is -12%; with Klebsiella pneumoniae it was -9%; in the test on Klebsiella aerogenes, -8%; with Staphylococcus aureus, -10%; in the test on Escherichia coli [3] it was -5%; with Enterococcus faecium [4], -1%. Further, the inhibition at 50 µM is -3% in the test on Pseudomonas aeruginosa, 9% with Escherichia coli [7] and -2% in the test with Escherichia coli [9]. Besides, the IC50 stood at 7.4 µM on Topoisomerase IV, 10 µM in test [12], 1010 nM on DNA gyrase [11] and 86 nM on DNA gyrase [10].

On to `Cc1[nH]c(C(=O)Nc2ccc3[nH]c(C(=O)O)cc3c2)c(Cl)c1Cl`, for which the inhibition at 50 µM in the test on Acinetobacter baumannii was 3%; in the test on Klebsiella pneumoniae it was -2%; with Klebsiella aerogenes, 6%; in the test with Staphylococcus aureus, 6%; in the test with Escherichia coli [3] it was 99%; with Enterococcus faecium [4], 20%. For the same compound, the inhibition at 50 µM was -2% in the test on Pseudomonas aeruginosa, 2% in the test with Escherichia coli [7], 54% in the test on Enterococcus faecalis and 2% with Escherichia coli [9]. The MIC with Escherichia coli [5] is 12.5 µM (≈ 4.4 µg/mL). Further, on DNA gyrase [10], the IC50 was 98 nM.

`Cc1[nH]c(C(=O)Nc2ccc(C(=O)N[C@@H](C)C(=O)O)cc2OC2CCNCC2)c(Cl)c1Cl`: the inhibition at 50 µM in the test on Acinetobacter baumannii is 2%; in the test with Klebsiella pneumoniae, 5%; in the test with Klebsiella aerogenes, -2%; in the test on Staphylococcus aureus, -11%; with Escherichia coli [3], 9%; in the test with Enterococcus faecium [4] it was -10%. Besides, the inhibition at 50 µM with Pseudomonas aeruginosa is 9%; with Escherichia coli [7] it was 7%; in the test on Escherichia coli [9] it was 12%. The IC50 worked out at 0.69 µM on Topoisomerase IV, 9.1 µM in [12], 99 nM at DNA gyrase [11] and 9.9 nM at DNA gyrase [10].

As for `COC(=O)[C@H](C)NC(=O)c1ccc(NC(=O)c2[nH]c(C)c(Cl)c2Cl)c(OC2CCNCC2)c1`, the inhibition at 50 µM was 21% with Acinetobacter baumannii; 0% with Klebsiella pneumoniae; -4% in the test on Klebsiella aerogenes; 27% with Staphylococcus aureus; 99% in the test with Escherichia coli [3]; 7% with Enterococcus faecium [4]. Further, the figures for the inhibition at 50 µM with Pseudomonas aeruginosa, in the test with Escherichia coli [7] and with Escherichia coli [9] were -1%, 14% and 24%, respectively. Moreover, the IC50 is 3.7 µM on Topoisomerase IV, 18 µM in [12], 1600 nM on DNA gyrase [11] and 40 nM at DNA gyrase [10]. In addition, the MIC with Escherichia coli [5] came out at 6.25 µM (≈ 3.11 µg/mL).

Turning to `Cc1[nH]c(C(=O)Nc2ccc(C(=O)N[C@H](C)C(=O)O)cc2OC2CCNCC2)c(Cl)c1Cl`, the inhibition at 50 µM in the test on Acinetobacter baumannii is 5%; in the test on Klebsiella pneumoniae it was 5%; with Klebsiella aerogenes, -3%; in the test on Staphylococcus aureus it was -1%; in the test with Escherichia coli [3] it was 35%; in the test on Enterococcus faecium [4] it was 3%. Besides, the inhibition at 50 µM with Pseudomonas aeruginosa was -3%; in the test with Escherichia coli [7], 1%; with Escherichia coli [9] it was 14%. The Activity in [2] stood at 31%. In addition, the IC50 on Topoisomerase IV worked out at 0.96 µM; in test [12], 15 µM; at DNA gyrase [10], 6.9 nM.

As to `Cc1[nH]c(C(=O)Nc2ccc(C(=O)NCC(=O)O)cc2OC2CCNCC2)c(Cl)c1Cl`, the inhibition at 50 µM in the test on Acinetobacter baumannii was 1%; in the test on Klebsiella pneumoniae it was 5%; in the test with Klebsiella aerogenes it was 4%; in the test on Staphylococcus aureus, 3%; with Escherichia coli [3], 37%; with Enterococcus faecium [4], -1%. The inhibition at 50 µM is 15% with Pseudomonas aeruginosa, -2% in the test with Escherichia coli [7] and 9% in the test with Escherichia coli [9]. Besides, the IC50 at Topoisomerase IV is 3.7 µM; in test [12], 7.2 µM; at DNA gyrase [11], 960 nM; at DNA gyrase [10], 17 nM.

`Cc1[nH]c(C(=O)Nc2ccc(C(=O)NS(C)(=O)=O)cc2)c(Cl)c1Cl`: the inhibition at 50 µM in the test on Acinetobacter baumannii is 6%; with Klebsiella pneumoniae, -2%; in the test with Klebsiella aerogenes, -8%; in the test on Staphylococcus aureus it was 5%; in the test with Escherichia coli [3], 73%; in the test with Enterococcus faecium [4] it was -3%. For the same compound, the inhibition at 50 µM in the test on Pseudomonas aeruginosa is 3%; in the test on Escherichia coli [7] it was 15%; in the test with Enterococcus faecalis, 16%; with Escherichia coli [9], 4%. Moreover, the Activity was determined as 55% in test [2], 81% in test [6] and 98% in test [8]. Further, the IC50 at DNA gyrase [10] worked out at 160 nM.
